Reference: article PMC11218446, “Antibacterial efficacy and membrane mechanism of action of the Serratia-derived non-ionic lipopeptide, serrawettin W2-FL10” (Microbiology Spectrum, 2024)
Values joined by “and” are separate entries in the source; they are usually repeats but may differ in a detail not shown here. Equal entries are not always repeated. Marks after values point to notes of the source that are not given here.

Experiments:
[1] = system: Chinese hamster ovarian (CHO) cell line; assay: Mammalian cell cytotoxicity, MTT assay; details: CHO cells
Method: (§1) To determine the biocompatibility of W2-FL10 as a potential therapeutic agent, the in vitro cytotoxicity of W2-FL10 against the CHO cell line ([50]) was determined over 48 h by the Drug Discovery and Development Centre at the University of Cape Town, as previously described by Mosmann ([51]). Briefly, W2-FL10 was prepared to a 10 mM stock solution in 100% DMSO and dilutions were prepared in growth media. The CHO cell line density of 10^5 cells/well in 96-well plates and allowed to attach for 24 h. Thereafter, the compound was added to the 96-well plates at various concentrations from 50 µM down to 16 nM and incubated for a further 48 h. At 44 h, MTT was added to the wells, and the plates were read 4 h later at 540 nm on a spectrophotometer. […] Finally, cell inhibition was plotted against concentration and the 50% lethal concentration (LC50) parameter and a minimum lethal concentration (MLC90) were obtained as described for the dose responses against bacterial targets above (equation 1).

[2] = Mammalian cell cytotoxicity, MTT assay; details: CHO cells
Method: as §1

E. faecalis S1 = assay: Broth microdilution assay (OD 600 nm); assay type: cell-based, Enterococcus faecalis
Method: (§2) Serrawettin W2-FL10 (95% pure) was tested for antibacterial activity using a broth microdilution susceptibility assay ([6]), with melittin included as an antibiotic control. The serrawettin W2-FL10 was prepared in 70% MeCN to 1.00 mg/mL, from which aliquots were prepared using 70% MeCN to a concentration of 50 µg/mL or 500 µg/mL, while aliquots of melittin were prepared using analytical quality H2O to 128 µg/mL. Fifty microliters of the respective W2-FL10 aliquots or melittin were dispensed into a clear 96-well plate and a microdilution (in 70% MeCN for W2-FL10 or analytical quality H2O for melittin) was performed within the plate. The plate was air-dried to remove the solvent and placed in a desiccator with chloroform for 20 min for sterilization.
(§3) All the cultures (inoculated into 5 mL MHB, or 5 mL TSB for Listeria and Enterococcus strains) were incubated at 37°C to reach an optical density (OD) of 0.4 at 600 nm (∼10^7 CFU/mL). A 1:20 dilution of the test strain (final concentration of ∼10^5 CFU/mL) was prepared and 100 µL was dispensed into each well (final concentration of W2-FL10 at 1.5–125 µg/mL and melittin at 2–32 µg/mL). Sterile broth and the OD-adjusted inoculum were included as positive controls, while sterile broth (no inoculum) was included as a negative control. The 96-well plate was incubated for 18 h at 37°C. All the tests were performed in triplicate, with independent duplicates. Following incubation, the absorbance was measured using a microtiter plate reader at 600 nm. The 50% growth inhibition concentration (IC50) was determined using GraphPad Prism version 5 for Windows [GraphPad Software, San Diego, USA (www.graphpad.com)]. A sigmodal curve with variable slope was fitted to each set of dose-repose data according to Rautenbach et al. ([17]) using equation (1):
(§4) (1) Y=bottom+(top−bottom)/1+10^logIC50×Activity slope
(§5) The “top” and “bottom” are the maximum and minimum inhibition responses, respectively, for a particular set of dose-response data, while the activity slope is related to the Hill slope of a sigmoidal binding curve ([16]). […] The MIC value was determined for each set of dose-response data as the lowest concentration, resulting in ≥90% inhibition of the target cell growth. In addition to the MIC and IC50 inhibition parameters, an inhibition concentration factor (ICF), was calculated as outlined in Rautenbach et al. ([17]). The ICF is indicative of the concentration increase from the highest concentration where no activity is observed to the MIC of a compound.

E. faecalis ATCC 7080 = assay: Broth microdilution assay (OD 600 nm); assay type: cell-based, Enterococcus faecalis
Method: as §2, §3, §4, §5

[3] = system: L. monocytogenes ATCC 13932; assay: Broth microdilution assay (OD 600 nm); assay type: cell-based, Listeria monocytogenes
Method: as §2, §3, §4, §5

S. aureus RN4220 = assay: Scanning electron microscopy; assay type: cell-based, Staphylococcus aureus; details: 25 µg/mL, 1 h; primarily one large lesion per cell
Method: (§6) SEM was performed to visualize the bacterial membrane morphology following treatment ([24]). Briefly, the S. aureus strains were prepared as described in the “Antibacterial activity: broth microdilution assay” section and harvested by centrifugation at 3,000 rpm for 10 min. The cells were re-suspended in PBS at a dilution of ~10^7 CFU/mL (OD600 = 0.4). The diluted cultures were then treated with 25 µg/mL of W2-FL10, for 1 h, while cells without W2-FL10 were used as a control. Specimens were resuspended in 2.5% (vol/vol) glutaraldehyde solution in 0.1 M PBS (pH 7.2) and fixed for approximately 24 h. After the primary fixation, bacterial cells were pelleted and rinsed with PBS. Dehydration of samples through an ethanol series (30%, 50%, 70%, 90%, 95%, and 100% for 10 min each) was performed, followed by filtration onto a filter paper (pore size of 0.2 µm), which was glued onto an aluminum grid (11 mm diameter). The grid was dried with hexamethyldisilazane and coated with gold-palladium alloy. The grids were then inspected with a Tescan MIRA3 RISE Scanning Electron Microscope at the Electron Microscope Unit of the University of Cape Town.

MRSA Xen 30 = assay: Scanning electron microscopy; assay type: cell-based, Staphylococcus aureus; details: 25 µg/mL, 1 h
Method: as §6

S. aureus ATCC 25923 = assay: Scanning electron microscopy; assay type: cell-based, Staphylococcus aureus; details: 25 µg/mL, 1 h
Method: as §6

[4] = 50% growth inhibition, sigmoidal curve fit, n = 3
[5] = inhibition concentration factor
[6] = ≥90% growth inhibition, OD 600 nm, TSB, 18 h 37°C

SMILES: CCCCCCCC1CC(=O)N[C@H](CC(C)C)C(=O)N[C@@H](CO)C(=O)N[C@@H]([C@@H](C)O)C(=O)N[C@H](Cc2ccccc2)C(=O)N[C@@H](CC(C)C)C(=O)O1 (some centres unmarked) [W2-FL10, serrawettin W2-FL10]
- MLC, minimum lethal concentration ([1]; MTT, 48 h, MLC90): 36.6 (50.0)^e μg/mL
- ICF (MIC/IC50)^2 ([1]; from MLC and LC50): 1.6
- CC50 at 48 h [2]: 40 µM and 29 µg/mL
- IC50 ± SD (E. faecalis S1; [4]): 5.2 ± 0.5 (3) µg/mL
- Selectivity index (E. faecalis S1; LC50 (CHO)/IC50): 5.6
- ICF (MIC/IC50)^2 (E. faecalis S1; [5]): 5.4
- MIC (E. faecalis S1; [6]): 12.5 μg/mL and 12.5 (17.1) μg/mL
- IC50 ± SD (E. faecalis ATCC 7080; [4]): 3.2 ± 0.3 (3) µg/mL
- Selectivity index (E. faecalis ATCC 7080; LC50 (CHO)/IC50): 9.1
- MIC (E. faecalis ATCC 7080; [6]): 6.3 μg/mL and 6.3 (8.5) μg/mL
- IC50 ± SD [3, 4]: 3.8 ± 0.2 (3) µg/mL
- Selectivity index ([3]; LC50 (CHO)/IC50): 7.6
- ICF (MIC/IC50)^2 [3, 5]: 2.7
- MIC [3, 6]: 6.3 μg/mL and 6.3 (8.5) μg/mL
- morphology by SEM, in words (S. aureus RN4220): more significant cell damage
- morphology by SEM, in words (MRSA Xen 30): Minor morphological changes
- morphology by SEM, in words (S. aureus ATCC 25923): Minor morphological changes
